Data: patent US20200405881A1, “CELL BASED METHODS AND COMPOSITIONS FOR THERAPEUTIC AGENT DELIVERY AND TREATMENTS USING SAME” (UNIVERSITY OF WASHINGTON, priority 2017, published 2020)

Assays:
macrophages [1] = test: Toxicity of drugamers to macrophages (Examples 5 and 6); format: cell-based; conditions: 50 or 500 ng/mL drugamer; data not shown
Procedure: Methods: CD14+ monocytes were isolated from PBMCs and differentiated to macrophages in RPMI/10% FBS with 10 ng/mL GM-CSF. After 6 days in culture, cells were replated into a 12 well dish, with 250K cells/well. The following day, they were mock transduced or transduced with vector control (EGFRt) or membrane-bound anti-FITC:EGFRt. Media was changed every 3 days. Seven days after transduction, all cells were washed twice with PBS and treated with either 50 or 500 ng/mL drugamer, which contained FITC and CMP8, in PBS. After a 15 min incubation at 37° C., cells were washed twice with PBS and one group of cells (“15 min”) was non-enzymatically detached with VERSENE™ and immediately fixed for flow with 2% paraformaldehyde. After the PBS wash, the other group of cells was allowed to recover in RP10 for 72 hours before detaching/fixing
Methods: CD14+ monocytes were isolated from PBMCs and differentiated to macrophages in RPMI/10% FBS with 10 ng/mL GM-CSF. After 6 days in culture, cells were replated into a 12 well dish, with 250K cells/well. The following day, they were mock transduced or transduced with vector control (EGFRt) or membrane-bound anti-FITC:EGFRt. Media was changed every 3 days. […] Rhodamine fluorescence was measured, indicating the presence of drugamer following 10 days in culture (data not shown).

macrophages [2] = test: Free resiquimod and galunisertib testing, cytokines and phenotype (Example 9); format: cell-based, human; conditions: Galunisertib 56 nM for 1 hour, on its own
Procedure: (§1) Methods: CD14+ monocytes were isolated from PBMCs and differentiated to macrophages in RPMI/10% FBS with 10 ng/mL GM-CSF or 25 ng/ml M-CSF for 6 days. Macrophages were incubated with Resiquimod (1 ug/ml) and/or Galunisertib (56 nM) for 1 hour, then stimulated with 1 ug LPS/100U/ml IFNg to determine impact on viability using flow cytometry of cells and pro-inflammatory responsiveness using a 30plex for human cytokines on cell supernatant 24 hours after stimulation. Expression of bFGF, IL-1B, GCSF, IL10, 1L^13, IL6, IL12, Rantes, MIP1a, GMCSF, MIP1B, MCP1, IL15, EGF, IL5, HGF, VEGF, IFNg, IFNa, IL1RA, TNFa, IL7, IP10, IL2R, MIG, and IL8 was measured in the following treatment groups: M1 control, M1 resiquimod, M1 galunisertib, M1 resiquimod+galunisertib, M1 LPS/IFNg+resiquimod, M1 LPS/IFNg+galunisertib, M1 LPS/IFNg+resiquimod, +galunisertib, M2 control, M2 resiquimod, M2 galunisertib, M2 resiquimod+galunisertib, M2 LPS/IFNg+resiquimod, M2 LPS/IFNg+galunisertib, and M LPS/IFNg+resiquimod, +galunisertib (data not shown). […]

primary macrophages = test: Free resiquimod and galunisertib testing, toxicity (Example 9); format: cell-based, human; conditions: Resiquimod 1 ug/ml and/or Galunisertib 56 nM, alone or in combination
Procedure: as §1

M1 polarized macrophages = test: Free PI103 testing, 30plex cytokines, M1 macrophages (Example 8); format: cell-based, human; conditions: 500 nM PI103 for 1 hour, then LPS/IFNg, 24 hours
Procedure: (§2) Methods: CD14+ monocytes were isolated from PBMCs and differentiated to macrophages in RPMI/10% FBS with 10 ng/mL GM-CSF or 25 ng/ml M-CSF for 6 days. Macrophages were incubated with 500 nM PI103 for 1 hour, then stimulated with 1 ug LPS/100U/ml IFNg to determine impact on viability using flow cytometry of cells and pro-inflammatory responsiveness using a 30plex for human cytokines on cell supernatant 24 hours after stimulation. The expression of MIP1B, MCP1, IL15, EGF, HGF, VEGF, IFNg, IFNa, IL1RA, TNFa, IL7, IP10, IL2R, MIG, IL4, and IL8 was determined for each of the following groups: M1 control, M1 PI103, M1 LPS/IFNg, M1 PI103 LPS/IFNg, M2 control, M2 PI103, M2 LPS/IFNg, and M2 PI103 LPS/IFNg (data not shown). A summary of the significant data when using t-test to compare between treatment groups with and without Pi103 is shown for M1 macrophages in FIG. 22A and M2 macrophages in FIG. 22B.

M2 polarized macrophages = test: Free PI103 testing, 30plex cytokines, M2 macrophages (Example 8); format: cell-based, human; conditions: 500 nM PI103 for 1 hour, then LPS/IFNg, 24 hours
Procedure: as §2

[3] = system: MCSF polarized M2 macrophages; test: Free PI103 testing, flow cytometry of surface markers (Example 8); format: cell-based, human; conditions: 500 nM PI103
Procedure: as §2, with “22B. Flow cytometry staining included Live/Dead, HLA-DR, CD11b and CD14 to confirm expression of macrophage surface markers and viability (data not shown), as well as CD206 (anti-inflammatory macrophage marker; data not shown), CD163 (anti-inflammatory macrophage marker; data not shown), CD80 and CD86 (costimulatory molecules; data not shown).” for “22B.”

[4] = system: CCR expressing CAR T cells; test: Exhaustion marker expression on CAR T cells cultured with macrophage derived IL-7 (Example 10); format: cell-based; conditions: in contrast to culture with recombinant IL-7, FIG. 23C
Procedure: Methods: CD14+ monocytes were isolated from PBMCs and differentiated to macrophages in RPMI/10% FBS with 10 ng/mL GM-CSF. After 6 days in culture, cells were replated into a 12 well dish, with 250K cells/well. The following day, they were mock transduced or transduced with vector control (EGFRt) or a vector encoding constitutive IL-7 under the control of the EF1a promoter. Autologous T cells were transduced with a chimeric cytokine receptor shown on FIG. 23A, and an anti-EGFRvIII specific CAR. T cells were magnetically separated based on CD4 and CD8 expression and expanded in vitro using Miltenyi CD3/CD28 beads and frozen. CFSE Cell Trace labeled CD4 or CD8 T cells were used in proliferation assays in response to IL-7 transduced macrophages.

`O=C1CCC2(Cc3ccc(Cl)cc3)Cc3cc(O)ccc3C2=C1c1ccc(OCCN2CCCCC2)cc1` (stereo not shown) [CMP8, 9a-(4-Chlorobenzyl)-7-hydroxy-4-[4-(2-piperidin-1-ylethoxy)phenyl]-1,2,9,9a-tetrahydro-3H-fluoren-3-one] was tested, and the toxicity to macrophages (macrophages [1]) was “toxicity is linked to CMP8”.

For `Cc1cccc(-c2nn3c(c2-c2ccnc4ccc(C(N)=O)cc24)CCC3)n1` [Galunisertib], the “phenotypic or functional response to stimulation” value (macrophages [2]) was “little impact on phenotypic or functional response to stimulation” and the “toxicity to primary macrophages” value (primary macrophages) was “neither molecule alone or in combination is toxic to primary macrophages”.

For `Oc1cccc(-c2nc(N3CCOCC3)c3oc4ncccc4c3n2)c1` [PI103], the pro-inflammatory cytokine production (M1 polarized macrophages) was “decrease”, the “pro-inflammatory TNFalpha production” value (M2 polarized macrophages) was “increase” and the “antigen presentation surface proteins CD80 and CD86” value [3] was “increase”. The “surface markers consistent with an anti-inflammatory phenotype” value [3] was “decrease”.

`CCOCc1nc2c(N)nc3ccccc3c2n1CC(C)(C)O` [resiquimod] was tested, and the “toxicity to primary macrophages” value (primary macrophages) was “neither molecule alone or in combination is toxic to primary macrophages”.

B1: macrophage derived IL-7: IL-7 produced by macrophages transduced with a vector encoding constitutive IL-7 (protein, UniProt P13232 26-177, looked up)
Interleukin-7: DCDIEGKDGKQYESVLMVSIDQLLDSMKEIGSNCLNNEFNFFKRHICDANKEGMFLFRAARKLRQFLKMNSTGDFDLHLLKVSEGTTILLNCTGQVKGRKPAALGEAQPTKSLEENKSLKEQKKLNDLCFLKRLLQEIKTCWNKILMGTKEH
For B1, the “expression of exhaustion markers TIM3, PD-1, and CD95” value [4] was “reduced” and the “expression of exhaustion markers TIM3, PD-1, and CD95” value ([4]; listed as GEM derived IL-7) was “reduces exhaustion marker expression”.
